In brackets after ≈: the same amount, converted by molar mass. Several values for one entry are separate records, joined by “and”; a condition that tells them apart may be missing. Identical values can stand only once.
Columns and labels:
LpxC from E. coli = LpxC from E. coli (Escherichia coli (strain K12), UniProt P0A725); conditions: cited from earlier work
[1] = system: FabZ*, hyperactive FabZ strain (L85P); experiment: microbe, parasite or virus in culture; assay type: cell-based, Escherichia coli; conditions: for MIC: Escherichia coli, read-out: MIC (μM) FabZ*
[2] = system: wild-type E. coli and FabZ* E. coli; experiment: Time kill assays in E. coli; conditions: 4xMIC (16xMIC in FIG. 3), CaMH media, 37° C.
Description: Each time point was performed in duplicate or triplicate and the entire experiment was performed in triplicate. The data points in the figure are the mean values from the independent measurements and the error bars represent the standard deviation from the mean.
The antimicrobial activity of the compounds was examined. […] The post-antibiotic effect (PAE) of the inhibitors was measured by monitoring the regrowth of bacteria following compound washout. […] Bacterial regrowth was monitored by plating samples as a function of time after wash-out and enumerating CFUs.

FabZ* E. coli = assay type: cell-based, Escherichia coli; conditions: 1:1000 dilution; for PAE (h) 1x, FabZ*: 1xMIC for 1 h; for PAE (h) 4x, FabZ*: 4xMIC for 1 h; for PAE (h) 16x, FabZ*: 16xMIC for 1 h
Description: FIG. 4. Post-antibiotic effect of the ecLpxC inhibitors on wild-type and FabZ* E. coli.
This included use of an E. coli strain (FabZ*) containing a hyperactive mutant of the fatty acid biosynthesis O-hydroxyacyl-ACP enzyme (FabZ), and determination of PAEs for wild-type E. coli in the presence of sub-MIC concentrations of macrolides.

[3] = system: wild-type E. coli (K12 MG1655); experiment: PAE in wild-type E. coli in the presence of sub-MIC azithromycin; assay type: cell-based, Escherichia coli; conditions: 16xMIC, 37° C.; for PAE (h) (sub-MIC AZ) 16x(0.2): then media with 0.2xMIC azithromycin; for PAE (h) (sub-MIC AZ) 16x(0.4): then media with 0.4xMIC azithromycin
Description: FIG. 6. Post-antibiotic effect in the presence of sub-MIC azithromycin.
The PAE measurements were repeated for wild-type E. coli in the presence of sub-MIC levels of the protein synthesis inhibitor azithromycin.

ecLpxC = ecLpxC (Escherichia coli (strain K12), UniProt P0A725); assay type: binding; conditions: residence time on ecLpxC at 25° C., displacement by fluorescent ligand
Description: Compounds were preincubated with ecLpxC and then mixed with a fluorescent LpxC inhibitor PT900.

P. aeruginosa PAO1 [4] = experiment: MIC by microbroth dilution, P. aeruginosa PAO1; conditions: Pseudomonas aeruginosa, PAO1, read-out: MIC (μM) (PAO1)
[5] = system: wild-type E. coli (K-12 MG1655); experiment: Post-antibiotic effect (PAE) in wild-type E. coli; assay type: cell-based, Escherichia coli; conditions: 1:1000 dilution; for PAE (h) 1x, Wild-type: 1xMIC for 1 h; for PAE (h) 4x, Wild-type: 4xMIC for 1 h; for PAE (h) 16x, Wild-type: 16xMIC for 1 h
Description: FIG. 4. Post-antibiotic effect of the ecLpxC inhibitors on wild-type and FabZ* E. coli. […] PAE data for wild-type E. coli are in panels (a) PT805, (c) PT810 and (e) CHIR-090, and for FabZ* E. coli in (b) PT805, (d) PT810 and (f) CHIR-090.
PAE data for wild-type E. coli are in panels (a) PT805, (c) PT810 and (e) CHIR-090, and for FabZ* E. coli in (b) PT805, (d) PT810 and (f) CHIR-090.

[6] = system: efflux-pump mutant strain (ΔMexABCDXY) (paEP); experiment: MIC by microbroth dilution, efflux-pump mutant P. aeruginosa; conditions: Pseudomonas aeruginosa, read-out: MIC (μM) (paEP)
Description: Bacterial Strains. […] The efflux-pump deficient P. aeruginosa strain (ΔMexABCDXY), N150, was derived from PAO1.
Minimum Inhibitory Concentration (MIC) Measurements.

paLpxC = paLpxC (Pseudomonas aeruginosa (strain ATCC 15692 / DSM 22644 / CIP 104116 / JCM 14847 / LMG 12228 / 1C / PRS 101 / PAO1), UniProt P47205); experiment: biochemical; assay type: binding
[7] = system: E. coli strain (K-12, MG1655); experiment: MIC by microbroth dilution, wild-type E. coli; assay type: cell-based, Escherichia coli; conditions: wild-type E. coli K-12 MG1655
[8] = in vivo; cited from earlier work
[9] = molecular target: LpxC from Aquifex aeolicus (aaLpxC) (Aquifex aeolicus (strain VF5), UniProt O67648); conditions: cited from earlier work
P. aeruginosa PAO1 [10] = experiment: Time-kill assays in P. aeruginosa PAO1; conditions: PAO1, 4x, 8x and 16xMIC, CAMH media, 37° C.
Description: Time-kill assays. […] The experimental data points are the mean values from triplicate, independent measurements, and the error bars represent the standard deviation from the mean.
Time-Kill Assays. […] Cultures were shaken at 37° C. for 6 h, and 100 μL aliquots were taken at each 1 h time interval and plated in serial dilutions in a Mueller-Hinton agar plate.

P. aeruginosa PAO1 [11] = experiment: Post-antibiotic effect (PAE) in P. aeruginosa PAO1; conditions: 37° C.
Description: Post-antibiotic effect of the paLpxC inhibitors on wild-type P. aeruginosa. […] The experimental data points are the mean values from triplicate, independent measurements, and the error bars represent the standard deviation from the mean.
After incubating the plates overnight at 37° C., CFUs were enumerated, and the PAE values were calculated using a standard method where the time for the bacteria to recover 1 log post drug washout compared to the control was determined (FIG. 17, Table 6).
Post-antibiotic Effect (PAE). PAEs were determined using P. aeruginosa PAO1. […] The compound was washed out by diluting the culture 1000-fold into fresh CAMH-II medium, and the regrowth of bacteria was monitored by taking 100 μL aliquots each hour and plating serial dilutions on Muller-Hinton agar plates.

paLpxC, sequence (P47205 1-299): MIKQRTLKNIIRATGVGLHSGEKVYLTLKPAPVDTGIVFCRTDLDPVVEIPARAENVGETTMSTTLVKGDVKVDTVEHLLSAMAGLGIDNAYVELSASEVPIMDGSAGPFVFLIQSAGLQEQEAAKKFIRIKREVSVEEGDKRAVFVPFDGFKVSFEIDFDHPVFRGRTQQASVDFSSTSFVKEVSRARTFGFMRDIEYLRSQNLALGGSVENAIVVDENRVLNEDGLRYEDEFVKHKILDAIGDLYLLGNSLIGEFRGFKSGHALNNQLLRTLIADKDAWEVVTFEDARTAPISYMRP
LpxC from Aquifex aeolicus (aaLpxC), sequence (O67648 whole entry): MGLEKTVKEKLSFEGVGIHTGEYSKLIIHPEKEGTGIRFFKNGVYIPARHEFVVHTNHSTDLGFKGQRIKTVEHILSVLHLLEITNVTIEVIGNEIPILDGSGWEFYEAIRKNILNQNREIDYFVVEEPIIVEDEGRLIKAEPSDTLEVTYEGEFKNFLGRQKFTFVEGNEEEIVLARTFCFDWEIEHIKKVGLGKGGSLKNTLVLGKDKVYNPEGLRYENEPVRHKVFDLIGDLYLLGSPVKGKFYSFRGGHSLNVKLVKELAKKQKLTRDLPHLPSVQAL
LpxC from E. coli, sequence (P0A725 whole entry): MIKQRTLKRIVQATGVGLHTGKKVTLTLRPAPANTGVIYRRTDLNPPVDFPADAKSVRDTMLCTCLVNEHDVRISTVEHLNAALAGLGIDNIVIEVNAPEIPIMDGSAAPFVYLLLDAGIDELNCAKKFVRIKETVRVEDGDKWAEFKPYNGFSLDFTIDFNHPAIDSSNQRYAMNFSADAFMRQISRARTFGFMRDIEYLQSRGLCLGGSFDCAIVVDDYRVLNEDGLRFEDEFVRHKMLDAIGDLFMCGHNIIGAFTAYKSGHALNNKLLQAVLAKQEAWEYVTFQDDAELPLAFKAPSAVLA

Row | SMILES | MIC [1] | reduction of the starting log CFU/mL of the bacterial culture [2] | PAE (h) 1x, FabZ* (FabZ* E. coli) | PAE (h) 4x, FabZ* (FabZ* E. coli) | PAE (h) 16x, FabZ* (FabZ* E. coli) | PAE (h) (sub-MIC AZ) 16x(0.2) [3] | PAE (h) (sub-MIC AZ) 16x(0.4) [3] | tR (ecLpxC) | MIC (P. aeruginosa PAO1 [4]) | PAE (h) 1x, Wild-type [5] | PAE (h) 4x, Wild-type [5] | PAE (h) 16x, Wild-type [5] | MIC [6] | MIC ([7]; Escherichia coli) | further results
1 | CC(O)(C(F)F)C(NC(=O)c1ccc(C#CC#Cc2ccc(N)cc2)cc1)C(=O)NO (centres unmarked) [LPC-058] |  |  |  |  |  |  |  |  |  |  |  |  |  |  | residence time on LpxC from E. coli (LpxC from E. coli): ~12 h
2 | CC(CCn1ccc(-c2ccc(-c3cn(Cc4ccccc4)nn3)cc2)cc1=O)(C(=O)NO)S(C)(=O)=O (racemic) [PT810, 4-(4-(4-(1-Benzyl-1H-1,2,3-triazol-4-yl)phenyl)-2-oxopyridin-1(2H)-yl)-N-hydroxy-2-methyl-2-(methylsulfonyl)butanamide] | 0.08 µM (≈ 0.0417 µg/mL) | greater than 3 logs | 0.7 ± 0.2 h | 0.76 ± 0.19 h and 0.8 ± 0.2 h | 0.9 ± 0.2 h | 1.9 ± 0.8 h | 2.6 ± 0.8 h | 6 ± 3 min | 12.5 µM (≈ 6.52 µg/mL) | 0 h | 0 h | 0 h | 0.78 µM (≈ 0.407 µg/mL) | 0.17 µM (≈ 0.0887 µg/mL) | Ki (paLpxC; 37° C., fluorescence competition): 0.0106 ± 0.0089 nM; tR (min) Fluorescence assay (paLpxC; 37° C., tR = 1/koff): 57 min and 57.3 ± 18.4 min; koff (paLpxC; read-out: Koff (s^−1)): 0.00032 ± 0.0001 s⁻¹; kon (paLpxC; read-out: Kon (μM^−1s^−1)): 43.8 ± 31.7 µM⁻¹ s⁻¹
3 | CC(C)(N)[C@H](NC(=O)c1ccc(C#CC#C[C@@H]2C[C@H]2CO)cc1)C(=O)NO [ACHN-975] |  |  |  |  |  |  |  |  |  |  |  |  |  |  | toxicity in clinical trials [8]: dose-limiting cardiovascular toxicity
4 | C[C@@H](O)[C@H](NC(=O)c1ccc(C#Cc2ccc(CN3CCOCC3)cc2)cc1)C(=O)NO [CHIR-090] |  | greater than 3 logs | 0.5 ± 0.1 h | 1.34 ± 0.04 h and 1.3 ± 0.3 h | 2.4 ± 0.2 h | 2.8 ± 0.3 h | 3.7 ± 0.2 h | 66 ± 30 min |  | 0 h | 0 h | 0 h |  |  | MIC (μM) FabZ* ([1]; hyperactive FabZ strain (L85P)): 0.010 µM (≈ 0.00437 µg/mL); residence time on aaLpxC [9]: > 24 h; MIC [7]: 0.62 µM (≈ 0.271 µg/mL)
5 | CC(CCn1ccc(-c2ccc(-n3nccn3)cc2)cc1=O)(C(=O)NO)S(C)(=O)=O (racemic) [PT805, 4-(4-(4-(2H-1,2,3-Triazol-2-yl)phenyl)-2-oxopyridin-1(2H)-yl)-N-hydroxy-2-methyl-2-(methylsulfonyl)butanamide] | 0.019 µM (≈ 0.0082 µg/mL) | greater than 3 logs | 0.8 ± 0.1 h | 1.53 ± 0.13 h and 1.5 ± 0.1 h | 2.1 ± 0.2 h | 1.4 ± 0.1 h | 2.4 ± 0.1 h |  | 1.56 µM (≈ 0.673 µg/mL) | 0 h | 0 h | 0 h | 0.4 µM (≈ 0.173 µg/mL) | 0.16 µM (≈ 0.069 µg/mL) | reduction of the starting log CFU/mL of the bacterial culture (P. aeruginosa PAO1 [10]): more than 3 logs; PAE (h) 4x (P. aeruginosa PAO1 [11]; PAO1, 4xMIC for 1 h): 1.4 ± 0.1 h; PAE (h) 8x (P. aeruginosa PAO1 [11]; PAO1, 8xMIC for 1 h): 2.2 ± 0.3 h; PAE (h) 16x (P. aeruginosa PAO1 [11]; PAO1, 16xMIC for 1 h): 3.4 ± 0.2 h

Reference: patent publication US20250099433A1, “COMPOSITION AND METHOD FOR TREATMENT OF GRAM NEGATIVE BACTERIAL INFECTION” (The Research Foundation for the State University of New York, priority 2021, published 2025)
